The results in this text go back to patent US20040018983A1, “Antifungal compositions” (Achillion Pharmaceuticals, Inc., priority 2001, published 2004).

Values after ≈ are worked out from the molar mass of the structure shown. Read-outs that look alike come from different tables or passages of the source.

The experiment concerns C. albicans. The experiment can be described thus: Fungal susceptibility to zinc finger selective antifungals: broth microdilution growth inhibition (OD 405 nm), with and without a zinc finger blocking compound. The format is cell-based, Candida albicans. The settings on record: for blocking of antifungal action by glutathione and cysteine (zinc finger mechanism): discussion of Table 2; for MIC: Candida albicans, 48 h, read-out: C. albicans MIC; for Fold Increase: increase of MIC with blocking compound (cysteine or glutathione) over MIC alone; for C. albicans MIC + 200 μg/ml cysteine: with 200 μg/ml cysteine as zinc finger blocking compound; for C. albicans MIC + 200 μg/ml glutathione: with 200 μg/ml glutathione as zinc finger blocking compound. The method, then: A panel of Candida clinical isolates (including azole-resistant species) plus single isolates of Aspergillus fumigates, were used to evaluate the activity of the test compounds in vitro. Inocula were prepared as broth cultures (yeasts) or as suspensions of fungal material made from agar slope cultures (molds). The test compounds were pipetted from DMSO stock solution into water to provide a series of […] dilutions. […] (other fungi). Growth in the microcultures was measured by its optical density (OD) measured at a wavelength of 405 nm. The OD for cultures with test compounds was calculated as a percentage of the control, drug-free OD. Inhibition of growth to 35% of control or less was recorded as significant inhibition (Table 2).
For orientation: Broth dilution looks for growth in wells or tubes with falling amounts of substance.

Where [1] appears, read: no blocking compound, CYG medium, 2 days at 37° C., inhibition of growth to 35% of control or less.

Regarding `CN(C)c1ccc(N=O)cc1` [Compound 9, 4-nitroso-N,N-dimethylaniline], the “blocking of antifungal action by glutathione and cysteine (zinc finger mechanism)” value was “blocked to a somewhat different extent by the two different blocking compounds, but in both cases the effect is significant”.
Consider `Cc1ccccc1N=O` [Compound 4, 2-nitrosotoluene], for which the “blocking of antifungal action by glutathione and cysteine (zinc finger mechanism)” value is listed as “not blocked by either glutathione or cysteine”; the “Fold Increase” value was found to be 0 Fold; the “C. albicans MIC + 200 μg/ml cysteine” value was 16 µg/mL; the “C. albicans MIC + 200 μg/ml glutathione” value amounted to 16 µg/mL. The MIC under setting [1] is 16 µg/mL (≈ 132 µM).
Consider `c1csc(SSc2cccs2)c1` [Compound 6, di(2-thienyl)disulphide], for which the “Fold Increase” value stood at 2 Fold, the “C. albicans MIC + 200 μg/ml cysteine” value was found to be 16 µg/mL and the “C. albicans MIC + 200 μg/ml glutathione” value came to 16 µg/mL. The MIC under setting [1] was 8 µg/mL (≈ 34.7 µM).
Turning to `O=Nc1ccc(Nc2ccccc2)cc1` [Compound 12, 4-nitrosodiohenylamine], the MIC was 2 µg/mL (≈ 10.1 µM), the “Fold Increase” value came to 8 Fold, the “C. albicans MIC + 200 μg/ml cysteine” value came to 16 µg/mL and the “C. albicans MIC + 200 μg/ml glutathione” value turned out to be 16 µg/mL.
`O=Nc1ccc2oc(=O)ccc2c1` [Compound 2, 6-nitroso-1,3-benzopyrene]: the “Fold Increase” value was determined as 4 Fold, the “C. albicans MIC + 200 μg/ml cysteine” value amounted to 16 µg/mL and the “C. albicans MIC + 200 μg/ml glutathione” value was determined as 16 µg/mL. For the same molecule, the MIC under setting [1] was determined as 4 µg/mL (≈ 22.8 µM).

A word on the MIC: it is the lowest concentration found to suppress growth.
